Measured values reported in patent US20070224657A1, “Distribution of PON1 as a marker of lipid related disorders” (priority 2006, published 2007).
Where two headings read alike, the source gives them in different places.

How the values were obtained:
[1] = molecular target: T1, PON1 (Homo sapiens, UniProt P27169); settings: inhibitor or antibody (diluted 1:10, v:v) added to the fractions; data not shown
[2] = molecular target: T1, PON1; settings: inhibitor 200 μM
Protocol: Arylesterase activity: Arylesterase activity was determined using 5 μl serum or 10 μl of the HDL or LPDS fraction in a total volume of 1 ml of 50 mM Tris-HCL, pH 8.0 containing 1 mM CaCl2 and 1 mM phenyl acetate. The increase in OD at 270 nm was monitored for 1 minute. One unit is defined as 1 μmol of phenyl actetate hydrolyzed per ml per minute (26).

[3] = system: J774 A.1 macrophages; assay: Macrophage cholesterol efflux mediated by HDL or LPDS; format: cell-based, murine; settings: Mus musculus
Protocol: HDL and LPDS were isolated from 3 healthy subjects by ultracentrifugation. […] The cells were also incubated with HDL or LPDS fractions that were preincubated for 1 hour at 37° C. with the PON1 inhibitor 2-hydroxyquinoline (200 μM), or with HDL and LPDS that were enriched with evolved PON1 (50 paraoxonase U/ml). HDL or LPDS-mediated cholesterol efflux was then determined. Results are given as mean±S.D of three different experiments *p<0.01 vs. HDL, #p<0.01 vs. LPDS.
Cells: J774 A.1 murine macrophage cells were purchased from the American Tissue Culture Collection (ATCC, Rockville, Md.). The cells were grown in Dulbecco's modified Eagle's medium (DMEM) containing 5% FCS and 100 U penicillin/ml, 100 μg streptomycin/ml, and 2 mM glutamine.
Macrophage Cholesterol efflux determination: J774 A.1 macrophages were incubated with [^3H]-labeled cholesterol (2 μCi/ml) for 1 hour at 37° C., followed by cell wash in ice-cold PBS (×3) and a further incubation in the absence or presence of HDL or LPDS (5 paraoxonase units/ml)) for 3 hours at 37° C. […] Cellular and medium [^3H]-labeled cholesterol was quantitated and the percentage of cholesterol efflux was calculated [the ratio of [^3H]-label in the medium*100/([^3H]-label in the medium+[^3H]-label in the cells), 18]. […]

T1 sequence (P27169 whole entry): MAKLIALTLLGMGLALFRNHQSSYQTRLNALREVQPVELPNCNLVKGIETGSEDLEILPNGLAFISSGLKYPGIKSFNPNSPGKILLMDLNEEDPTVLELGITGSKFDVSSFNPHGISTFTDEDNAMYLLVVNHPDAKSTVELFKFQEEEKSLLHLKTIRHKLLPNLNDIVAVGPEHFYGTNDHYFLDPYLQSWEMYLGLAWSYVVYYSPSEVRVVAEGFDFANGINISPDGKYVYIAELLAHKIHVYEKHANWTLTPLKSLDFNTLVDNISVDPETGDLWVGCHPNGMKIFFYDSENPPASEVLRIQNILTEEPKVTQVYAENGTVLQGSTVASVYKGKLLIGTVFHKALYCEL

SMILES: Oc1ccc2ccccc2n1 [2-hydroxyquinoline]
- paraoxonase activities in HDL and LPDS [1]: significantly reduced
- reduction in HDL arylesterase activity ([2]; HDL fraction): 60%
- HDL arylesterase activity with inhibitor ([2]; HDL fraction, without inhibitor 22.4±1.5): 9.0±1.0 units/ml
- reduction in LPDS arylesterase activity ([2]; LPDS fraction): 76%
- LPDS arylesterase activity with inhibitor ([2]; LPDS fraction, without inhibitor 2.9±0.5): 0.7±0.7 units/ml
- inhibition at 200 µM ([3]; J774.A1, read-out: reduction of cholesterol efflux by HDL preincubated with the inhibitor): 25%
- inhibition at 200 µM ([3]; J774.A1, inhibitor 200 μM, vs non-treated LPDS, read-out: reduction of cholesterol efflux by LPDS preincubated with the inhibitor): 10%
